Experimental findings from patent US20190192517A1, “TREATMENT OF SQUAMOUS CELL CARCINOMAS WITH INHIBITORS OF ERK” (Kura Oncology, Inc., priority 2016, published 2019) are described below.

A value given as a limit tells only on which side of the number the result lay.

T1 sequence (P28482 whole entry): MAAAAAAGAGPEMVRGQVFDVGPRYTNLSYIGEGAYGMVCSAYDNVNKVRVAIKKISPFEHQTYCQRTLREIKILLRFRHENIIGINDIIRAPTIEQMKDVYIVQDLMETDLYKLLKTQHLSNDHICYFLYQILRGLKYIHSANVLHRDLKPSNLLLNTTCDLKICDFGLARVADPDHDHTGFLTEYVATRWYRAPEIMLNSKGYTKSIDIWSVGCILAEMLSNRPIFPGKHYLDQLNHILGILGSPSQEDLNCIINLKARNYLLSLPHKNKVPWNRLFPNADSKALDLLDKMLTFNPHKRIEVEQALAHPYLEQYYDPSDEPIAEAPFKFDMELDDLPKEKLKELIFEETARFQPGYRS

The experiment addresses T1, ERK2 enzyme (Homo sapiens, UniProt P28482).
T1 construct: purchased Life Technologies
Description: Inhibition assay of ERK (Z'-LYTE kinase assay, Ser/Thr 3 peptide, 100 μM ATP). As to conditions: in vitro. The format is biochemical. Here is the method: Example 9: Inhibition Assays of ERK. The inhibition of ERK activity by the compounds disclosed herein was determined using the Z′-LYTE kinase assay kit (Life Technologies) with a Ser/Thr 3 peptide substrate (Life Technologies) according to manufacturer's instructions. […] The IC50 values for the compounds were determined with 3-fold serial dilutions in duplicate. The compounds were first diluted in 1:3 dilutions in 100% DMSO at 100× the desired concentration, and then further diluted (1:25) in 20 mM HEPES buffer (Invitrogen) to make 4× solutions prior to adding to the enzyme solution. The final DMSO concentration in the assay was 1%. Final reaction volume was […] in 384-well plates. Kinase reactions were conducted for 1 hour followed by the assay development reaction (1 hour) in a 384 well plate format (20 μL/well).
In general, IC50 refers to the concentration at which inhibition is half-maximal. For the compound `Cc1cc(-c2n[nH]c3cc4c(cc23)CN([C@@H]2CN(C)C[C@H]2c2ccccc2)C(=O)N4)ccn1` (racemic) [Compound 241], the IC50 was less than 500 nM.

`Cc1cc(-c2n[nH]c3cc4c(cc23)CN([C@@H]2CN(C)C[C@H]2c2ccccc2)C(=O)N4)cc(C)n1` (racemic) [Compound 248] showed an IC50 of less than 500 nM. In the case of `CCN1C[C@@H](N2Cc3cc4c(-c5ccnc(C)c5)n[nH]c4cc3NC2=O)[C@H](c2ccccc2)C1` (racemic) [Compound 278] it was less than 500 nM; in that of `Cc1cc(-c2n[nH]c3cc4c(cc23)CN([C@@H]2CN(C(C)C)C[C@H]2c2ccccc2)C(=O)N4)ccn1` (racemic) [Compound 279], less than 500 nM; in that of `Cc1cc(-c2n[nH]c3cc4c(cc23)CN([C@@H]2CN(C)C[C@H]2c2ccccc2F)C(=O)N4)cc(C)n1` (racemic) [Compound 306], less than 500 nM.

Consider `Cc1cc(-c2n[nH]c3cc4c(cc23)CN([C@@H]2CN(CC(F)F)C[C@H]2c2ccccc2)C(=O)N4)ccn1` (racemic) [Compound 362], for which the IC50 was less than 500 nM. As for `O=C1Nc2cc3[nH]nc(-c4ccncc4)c3cc2CN1Cc1ccccc1` [Compound 1], the IC50 was less than 500 nM.

For `O=C1Nc2cc3[nH]nc(-c4ccncc4)c3cc2CN1Cc1cccc(Cl)c1` [Compound 3], the IC50 was less than 500 nM. As for `Cc1cc(-c2n[nH]c3cc4c(cc23)CN(Cc2cccc(Cl)c2)C(=O)N4)ccn1` [Compound 4], the figure is less than 500 nM. As for `Cc1cc(-c2n[nH]c3cc4[nH]c(=O)c(C(C)c5ccccc5)cc4cc23)ccn1` (stereo not drawn) [Compound 22], the figure is less than 500 nM; as for `Cc1cc(-c2n[nH]c3cc4c(cc23)CN([C@@H]2CCCN(Cc3ccccc3)C2)C(=O)N4)ccn1` [Compound 63], less than 500 nM; as for `CCC(c1ccccc1)c1cc2cc3c(-c4ccnc(C)c4)n[nH]c3cc2[nH]c1=O` (stereo not drawn) [Compound 64], less than 500 nM. In the case of `COc1ncc(-c2n[nH]c3cc4c(cc23)CN(Cc2cccc(Cl)c2)C(=O)N4)cn1` [Compound 68] it was less than 500 nM. `Cc1cc(-c2n[nH]c3cc4[nH]c(=O)c([C@H](C)c5ccccc5)cc4cc23)ccn1` [Compound 84] showed a concentration for half-maximal inhibition (IC50) of less than 500 nM.

`COc1ncc(-c2n[nH]c3cc4c(cc23)CN([C@@H]2CCCN(Cc3ccccc3F)C2)C(=O)N4)cn1` [Compound 101] showed an IC50 of less than 500 nM.

Take `COc1ncc(-c2n[nH]c3cc4c(cc23)CN([C@@H]2CCCN(Cc3c(F)cccc3F)C2)C(=O)N4)cn1` [Compound 102]: the IC50 was less than 500 nM. As for `COc1ncc(-c2n[nH]c3cc4c(cc23)CN([C@@H]2CCCN(Cc3c(F)cccc3OC)C2)C(=O)N4)cn1` [Compound 103], the IC50 was less than 500 nM.

For `COc1ncc(-c2n[nH]c3cc4c(cc23)CN([C@@H]2CCCN(Cc3ccccc3)C2)C(=O)N4)cn1` [Compound 104], the IC50 is less than 500 nM. In turn, `Cc1cc(-c2n[nH]c3cc4c(cc23)CN([C@@H]2CCCN(Cc3ccc(F)c(Cl)c3)C2)C(=O)N4)ccn1` [Compound 134] had an IC50 of less than 500 nM. In the case of `Cc1cc(-c2n[nH]c3cc4c(cc23)CN([C@@H]2CCCN(Cc3c(F)cccc3F)C2)C(=O)N4)ccn1` [Compound 143] it was less than 500 nM; in that of `COc1cccc(F)c1CN1CCC[C@@H](N2Cc3cc4c(-c5ccnc(C)c5)n[nH]c4cc3NC2=O)C1` [Compound 144], less than 500 nM; in that of `Cc1cc(-c2n[nH]c3cc4c(cc23)CN([C@@H]2CCN(Cc3ccccc3)C2)C(=O)N4)ccn1` [Compound 146], less than 500 nM. As for `[2H]C([2H])(c1ccccc1)N1CCC[C@@H](N2Cc3cc4c(-c5ccnc(C)c5)n[nH]c4cc3NC2=O)C1` [Compound 148], the figure is less than 500 nM; as for `Cc1cc(-c2n[nH]c3cc4c(cc23)CN(CCNCc2ccccc2)C(=O)N4)ccn1` [Compound 149], less than 500 nM; as for `Cc1cc(-c2n[nH]c3cc4c(cc23)CN([C@@H]2CCCN(Cc3ccc(F)cc3)C2)C(=O)N4)ccn1` [Compound 151], less than 500 nM. As for `Cc1cc(-c2n[nH]c3cc4c(cc23)CN([C@@H]2CCN(CCc3ccccc3)C2)C(=O)N4)ccn1` [Compound 153], the figure is less than 500 nM. On to `Cc1cc(-c2n[nH]c3cc4c(cc23)CN([C@@H]2CCCN(C(C)c3ccccc3)C2)C(=O)N4)ccn1` (stereo partly drawn) [Compound 154], for which the IC50 was less than 500 nM. With `Cc1cc(-c2n[nH]c3cc4c(cc23)CN([C@@H]2CCCN(Cc3cccc(Cl)c3)C2)C(=O)N4)ccn1` [Compound 156], the IC50 was less than 500 nM. As for `Cc1cc(-c2n[nH]c3cc4c(cc23)CN([C@@H]2CCCN(Cc3ccccc3Cl)C2)C(=O)N4)ccn1` [Compound 158], the IC50 is less than 500 nM. In the case of `COc1cccc(F)c1CN1CC[C@@H](N2Cc3cc4c(-c5ccnc(C)c5)n[nH]c4cc3NC2=O)C1` [Compound 162] it was less than 500 nM; in that of `[2H]c1c([2H])c([2H])c(C([2H])([2H])N2CCC[C@@H](N3Cc4cc5c(-c6ccnc(C)c6)n[nH]c5cc4NC3=O)C2)c([2H])c1[2H]` [Compound 165], less than 500 nM; in that of `Cc1cc(-c2n[nH]c3cc4c(cc23)CN([C@@H]2CCCN(Cc3cccc(F)c3)C2)C(=O)N4)ccn1` [Compound 184], less than 500 nM. Regarding `Cc1cc(-c2n[nH]c3cc4c(cc23)CN([C@@H]2CCCN(Cc3cccc(F)c3F)C2)C(=O)N4)ccn1` [Compound 185], the IC50 was less than 500 nM.

For `Cc1cc(-c2n[nH]c3cc4c(cc23)CN([C@@H]2CCCN(Cc3cc(F)ccc3F)C2)C(=O)N4)ccn1` [Compound 187], the IC50 was less than 500 nM. In turn, `Cc1cc(-c2n[nH]c3cc4c(cc23)CN([C@@H]2CCCN(Cc3ccc(F)c(F)c3)C2)C(=O)N4)ccn1` [Compound 190] showed an IC50 of less than 500 nM. In the case of `Cc1cc(-c2n[nH]c3cc4c(cc23)CN([C@@H]2CCCN(Cc3ccc(F)cc3F)C2)C(=O)N4)ccn1` [Compound 196] it was less than 500 nM; in that of `Cc1cc(-c2n[nH]c3cc4[nH]c(=O)c(C(C)c5ccc(F)cc5)cc4cc23)ccn1` (stereo not drawn) [Compound 197], less than 500 nM.

As to `Cc1cc(-c2n[nH]c3cc4c(cc23)CN(CC2CCCC2)C(=O)N4)ccn1` [Compound 212], the IC50 is less than 500 nM. The compound `Cc1cc(-c2n[nH]c3cc4c(cc23)CN(CC2CCCCC2)C(=O)N4)ccn1` [Compound 213] came in with an IC50 of less than 500 nM. In the case of `Cc1cc(-c2n[nH]c3cc4c(cc23)CN([C@@H]2CCN(CC(F)(F)F)C2)C(=O)N4)ccn1` [Compound 214] it was less than 500 nM. For the compound `Cc1cc(-c2n[nH]c3cc4c(cc23)CN(Cc2cc(F)cc(F)c2)C(=O)N4)cc(C)n1` [Compound 225], the IC50 is less than 500 nM. In the case of `Cc1cc(-c2n[nH]c3cc4c(cc23)CN([C@@H]2CCN(CC(F)(F)F)C2)C(=O)N4)cc(C)n1` [Compound 237], the IC50 was less than 500 nM.

As to `Cc1cc(-c2n[nH]c3cc4c(cc23)CN(C2CCCC2)C(=O)N4)cc(C)n1` [Compound 239], the IC50 is less than 500 nM.

Compound `Cc1cc(-c2n[nH]c3cc4c(cc23)CN(Cc2cccc(C(F)(F)F)c2)C(=O)N4)ccn1` [Compound 240] had an IC50 of less than 500 nM. For `Cc1cc(-c2n[nH]c3cc4c(cc23)CN(C2CCC2)C(=O)N4)ccn1` [Compound 243], the IC50 is less than 500 nM. As for `Cc1cc(-c2n[nH]c3cc4c(cc23)CN([C@@H]2CCCN(CC(F)(F)F)C2)C(=O)N4)cc(C)n1` [Compound 244], the figure is less than 500 nM; as for `Cc1cc(-c2n[nH]c3cc4c(cc23)CN([C@@H]2CCCN(Cc3ccc(C)s3)C2)C(=O)N4)ccn1` [Compound 245], less than 500 nM. As to `Cc1cc(-c2n[nH]c3cc4c(cc23)CN([C@@H]2CCCN(Cc3csc(C)c3)C2)C(=O)N4)ccn1` [Compound 251], the IC50 was less than 500 nM. `Cc1cc(-c2n[nH]c3cc4c(cc23)CN([C@@H]2CCCN(Cc3ccsc3)C2)C(=O)N4)ccn1` [Compound 252] registered an IC50 of less than 500 nM. As for `Cc1cc(-c2n[nH]c3cc4c(cc23)CN([C@@H]2CCCN(Cc3cccs3)C2)C(=O)N4)ccn1` [Compound 254], the figure is less than 500 nM; as for `Cc1cc(-c2n[nH]c3cc4c(cc23)CN([C@H]2CN(Cc3ccccc3)CC(F)(F)C2)C(=O)N4)ccn1` [Compound 264], less than 500 nM; as for `Cc1cc(-c2n[nH]c3cc4c(cc23)CN([C@@H]2CCN(C(C)C(F)(F)F)C2)C(=O)N4)ccn1` (stereo partly drawn) [Compound 267], less than 500 nM. As for `C=C(c1ccccc1)c1cc2cc3c(-c4ccnc(C)c4)n[nH]c3cc2[nH]c1=O` [Compound 269], the figure is less than 500 nM; as for `COc1cc(-c2n[nH]c3cc4c(cc23)CN([C@@H]2CCCN(Cc3ccccc3)C2)C(=O)N4)ccn1` [Compound 270], less than 500 nM. As for `COc1cc(-c2n[nH]c3cc4c(cc23)CN([C@@H]2CCCN(Cc3ccc(F)cc3F)C2)C(=O)N4)ccn1` [Compound 271], the figure is less than 500 nM; as for `COc1ccc(-c2n[nH]c3cc4c(cc23)CN([C@@H]2CCCN(Cc3ccccc3)C2)C(=O)N4)cn1` [Compound 272], less than 500 nM; as for `COc1ccc(-c2n[nH]c3cc4c(cc23)CN([C@@H]2CCCN(Cc3ccc(F)cc3F)C2)C(=O)N4)cn1` [Compound 273], less than 500 nM. The compound `Cc1ccc(-c2n[nH]c3cc4c(cc23)CN([C@@H]2CCCN(Cc3ccccc3)C2)C(=O)N4)cn1` [Compound 275] registered an IC50 of less than 500 nM.

`COc1ncc(-c2n[nH]c3cc4c(cc23)CN([C@@H]2CCCN(Cc3ccc(F)cc3F)C2)C(=O)N4)cn1` [Compound 280] displayed an IC50 of less than 500 nM. Compound `Cn1ccc(-c2n[nH]c3cc4c(cc23)CN([C@@H]2CCCN(Cc3ccc(F)cc3F)C2)C(=O)N4)c1` [Compound 281] yielded an IC50 of less than 500 nM.
